Data published in article PMC10137179, “Assessment of Covalently Binding Warhead Compounds in the Validation of the Cytomegalovirus Nuclear Egress Complex as an Antiviral Target” (Cells, 2023).
Like-named read-outs stand apart in the source and are kept apart here.

Legend:
[1] = system: HCMV AD169-GFP; assay: microbe, parasite or virus in culture; format: cell-based, human cytomegalovirus (HCMV); conditions: for SI: selectivity index CC50/EC50, AD169-GFP
Method: (§1) Cytotoxicity of the analyzed compounds was determined by the Neutral Red dye uptake assay. A total of 1.35 × 10^5 HFFs per well were seeded in 96-well plates 1 d prior to analysis, cultivated overnight until cells were confluent and then incubated with compounds for 7 days. The assay was performed as described previously using 40 μg/mL Neutral Red (Sigma Aldrich). The quantity of dye incorporation was determined using the Victor X4 microplate reader (PerkinElmer, Waltham, MA, USA) by fluorescence measurement at 560/630 nm for excitation/emission, respectively. To assess antiviral activity of compounds, HFFs seeded in 96-well plates (1.35 × 10^5 HFFs per well) were infected with HCMV AD169-GFP or TB40-IE2-YFP to reach 25–50% infected cells at 7 days post-infection (d p.i.). After incubation with the infectious inoculum for 1.5 h at 37 °C, compounds were added in serial dilutions. At 7 d p.i., cells were fixed for 10 min at room temperature using 10% formalin. Finally, cells were washed once with PBS followed by automated fluorescence quantitation.
Seeking for a novel group of potential antiviral agents, small molecules with covalent protein-binding activity were investigated. These small molecules, originally developed as kinase inhibitors, carry a so-called warhead moiety as an important functional group, such as the prototype afatinib (Figure 1A, red circle). In this study, a series of newly generated warhead compounds (most of which are the property of B.K./Lead Discovery Center, Dortmund, Germany) were used for an evaluation of putative antiviral and core NEC-inhibitory properties. In a first step, the antiviral activity of warheads was analyzed against HCMV TB40-IE2-YFP (Figure 1B) and AD169-GFP (Figure 1C). To this end, HFFs were infected with either of the two viral strains before the GFP or YFP reporter signals were measured at 7 d p.i. (in parallel, putative compound cytotoxicity was determined by Neutral Red assay). The HCMVs AD169-GFP and TB40-IE2-YFP, based on BAC-derived recombinants of the laboratory strains AD169 and TB40, respectively, were both propagated on HFFs, and the produced stocks were then used as two reporter viruses for the assessement of antiviral drug activity. While strain AD169 is mainly restricted in its tropism to fibroblasts, TB40 tropism can be extended to fibroblasts and epithelial and endothelial cells. Here, the use of two strains was intended to illustrate the assumption that antiviral activity of these warhead compounds may be directed to conserved viral target proteins, thus pointing out a minor impact of strains.
(A) Chemical structure of a clinically approved prototype of covalently binding warhead inhibitors, […], afatinib/Gilotrif®. The red circle identifies a functionally active α-, β-unsaturated carbonyl group. (B) At 7 d p.i., compounds were analyzed for their cytotoxicity (orange) and antiviral activity (blue) during HCMV infection, using TB40-IE2-YFP as a reporter virus. Cell viability was assessed through Neutral Red staining of uninfected cells. Measurements were performed in quadruplicate (YFP fluorometry) or triplicate (Neutral Red assay), and standard deviations of mean values are given; EC50, CC50 and SI values are indicated accordingly. (C) In a parallel series of analyses, HCMV AD169-GFP was used as another reporter virus representing a second viral strain. […] HCMV AD169-GFP-infected HFFs were treated with 0.1 µM to 50 µM of the compounds (in parallel Neutral Red assay, 0.1 µM to 100 µM), before the signal assessments were performed at 7 d p.i.

[2] = in vitro; format: cell-based, human; conditions: human
Method: as §1

[3] = system: HCMV TB40-IE2-YFP; assay: microbe, parasite or virus in culture; format: cell-based, human cytomegalovirus (HCMV)
Method: Cytotoxicity of the analyzed compounds was determined by the Neutral Red dye uptake assay. A total of 1.35 × 10^5 HFFs per well were seeded in 96-well plates 1 d prior to analysis, cultivated overnight until cells were confluent and then incubated with compounds for 7 days. The assay was performed as described previously using 40 μg/mL Neutral Red (Sigma Aldrich). The quantity of dye incorporation was determined using the Victor X4 microplate reader (PerkinElmer, Waltham, MA, USA) by fluorescence measurement at 560/630 nm for excitation/emission, respectively. […] Finally, cells were washed once with PBS followed by automated fluorescence quantitation.
Seeking for a novel group of potential antiviral agents, small molecules with covalent protein-binding activity were investigated. […] In a first step, the antiviral activity of warheads was analyzed against HCMV TB40-IE2-YFP (Figure 1B) and AD169-GFP (Figure 1C). To this end, HFFs were infected with either of the two viral strains before the GFP or YFP reporter signals were measured at 7 d p.i. (in parallel, putative compound cytotoxicity was determined by Neutral Red assay). […]
(A) Chemical structure of a clinically approved prototype of covalently binding warhead inhibitors, LDC580, afatinib/Gilotrif®. […] Cell viability was assessed through Neutral Red staining of uninfected cells. […]

[4] = system: HCMV pUL53 nuclear rim localization; assay: Confocal imaging of pUL53 localization in HCMV AD169-infected HFFs; format: cell-based
Method: HFF or HFF-UL50 cells, either Dox-induced or uninduced, were seeded in 6-well plates with a density of 2 × 10^5 cells per well, grown on coverslips and infected with HCMV AD169 or AD169 ∆UL50-ΣUL53. For infection experiments with the recombinant virus, different Shield-1 and Dox conditions were analyzed. Antivirals were added post-infection as described for the experiments. For transfection experiments, HeLa cells were seeded on coverslips in 6-well plates with a density of 3.25 × 10^5 cells per well for cotransfection with the indicated NEC expression plasmids (HSV-1 HA-UL34 + Flag-UL31, HCMV pUL50-HA + pUL53-Flag and EBV HA-BFRF1 + Flag-BFLF2). At indicated time points after virus infection, or 3 days post-transfection, cells were fixed, applied for IF staining as described previously and analyzed using a TCS SP5 confocal laser-scanning microscope with Leica LAS AF software (Leica Microsystems, Wetzlar, Germany). […] The device features a Leica photomultiplier tube (PMT) and a hybrid detector (HyD). Images were further processed using Photoshop CS5 (Adobe Inc., San José, CA, USA). Primary and secondary antibodies used for staining were mAb-UL53.01 (kindly provided by S. Jonjic and T. Lenac Rovis, Rijeka, Croatia), mAb-lamin A/C (ab108595, Abcam, Cambridge, UK), mAb-HA (Clone 7, H9658, Sigma-Aldrich, St. Louis, MO, USA), pAb-Flag (F7425, Sigma-Aldrich, St. Louis, MO, USA), anti-mouse Alexa 555 (A21422, Thermo Fisher Scientific, Waltham, MA, USA) and anti-rabbit Alexa 488 (A11034, Thermo Fisher Scientific, Waltham, MA, USA). Microscopic counting was performed for quantitation of colocalization patterns of two different proteins, as achieved by counting 50 cells per biological triplicate.

[5] = system: HFFs; assay: in vitro; format: cell-based, human
Method: as §1

[6] = system: HFF-UL50, HFFs, MRC-5 and 293T cells; assay: Neutral Red cytotoxicity of Shield-1 on four cell types; conditions: Shield-1 0.04–10 µM, 4 (293T) or 7 d post-treatment
Method: Analysis of putative cytotoxicity of the synthetic ligand Shield-1 on different cell
types. Four different types of cells (recombinant complementing cells HFF-UL50, primary HFFs and
and MRC-5 cells, and immortalized 293T) were treated with various concentrations of Shield-1
(0.04–10 µM as shown on the right). At 4 (293T) or 7 d post-treatment, cell viability was assessed by
Neutral Red staining. Data are presented as mean values ± SD over three biological replicates.
Cytotoxic staurosporine (STP, 1 µM) served as a positive control, DMSO-treated cells as a negative

[7] = molecular target: T1, pUL50–pUL53 interaction (LgBiT::UL53(1–87)-Flag + SmBiT::UL50-HA) (Human cytomegalovirus, UniProt P16791); format: cell-based; conditions: 293T cells, 5×, 1× or 0.2× anti-HCMV EC50 levels, truncated LgBiT::UL53(1–87)-Flag
T1 construct: expressed in transfected cells; host or cells: 293T

[8] = molecular target: T2, pUL50–pUL53 interaction (LgBiT::UL53-Flag + SmBiT::UL50-HA) (Human cytomegalovirus, UniProt P16791); format: cell-based; conditions: 293T cells, 5×, 1× or 0.2× anti-HCMV EC50 levels, full-length LgBiT::UL53-Flag
T2 construct: expressed in transfected cells; host or cells: 293T

[9] = molecular target: T3, SmBiT::UL50-HA (human cytomegalovirus (HCMV), UniProt P16791 1-397); assay: split reporter (BiFC, NanoBiT); NanoBiT in 293T cells cotransfected with LgBiT and SmBiT constructs; NanoGlo Live Cell Assay, luminescence at 37 °C; background of LgBiT without SmBiT subtracted; some samples with warhead compounds (LDC compounds, ibrutinib and others); conditions: partners not purified
T3 construct: also called pUL50; HCMV core NEC groove protein; source: 293T cells, transiently transfected (PEI), in live cells
T3 sequence: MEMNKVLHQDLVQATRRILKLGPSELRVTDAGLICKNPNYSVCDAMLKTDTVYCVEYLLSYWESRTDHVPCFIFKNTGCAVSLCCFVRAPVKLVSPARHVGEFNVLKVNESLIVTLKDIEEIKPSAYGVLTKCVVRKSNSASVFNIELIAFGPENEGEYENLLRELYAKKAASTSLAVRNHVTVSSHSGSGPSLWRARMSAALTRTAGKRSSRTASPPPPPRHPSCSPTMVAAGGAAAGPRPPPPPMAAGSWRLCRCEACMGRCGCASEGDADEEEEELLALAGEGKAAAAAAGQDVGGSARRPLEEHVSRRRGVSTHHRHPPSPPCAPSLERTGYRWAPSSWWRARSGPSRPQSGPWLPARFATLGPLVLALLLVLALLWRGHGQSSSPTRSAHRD

[10] = AD169-GFP-infected HFFs, 7 d p.i., 0.1 µM to 50 µM
[11] = Human betaherpesvirus 5, AD169, 168 h, clinically relevant warheads, 0.1 µM to 50 µM, AD169-GFP-infected HFFs, 7 d p.i.
[12] = HFFs infected with HCMV AD169 (MOI 0.1), 5 d p.i.

COC(=O)[C@]12CCC(C)(C)C[C@H]1[C@H]1C(=O)C=C3[C@@]4(C)C=C(C#N)C(=O)C(C)(C)[C@@H]4CC[C@@]3(C)[C@]1(C)CC2 [CDDO-Me, 2-cyano-3,12-dioxooleana-1,9(11)-dien-28-oic acid methyl ester]
antiviral activity (in words) [1, 10]: no notable antiviral activity | EC50 [1, 11]: < 0.4 µM | CC50 at 7 days [2]: > 0.8 µM

CCOc1cc(/C=c2\sc3n(c2=O)C(c2ccccc2OC)C(C(C)=O)=C(C)N=3)ccc1O (centres unmarked) [LDC492]
EC50 ([3]; HFFs infected with HCMV TB40-IE2-YFP, 7 d p.i., YFP fluorometry, read-out: EC50): > 10 µM | cells with partial or predominant dot-like localization of pUL53 within the nucleoplasm ([4]; HCMV AD169 MOI 0.1, 5 d p.i., concentrations of partial-grade antiviral activity, 50 cells counted per biological triplicate): more than 50% | EC50 ([1]; HFFs infected with HCMV AD169-GFP, 7 d p.i., investigational LDC warheads, read-out: EC50): 8.9 ± 6.6 µM | CC50 [5]: > 10 µM

CN(C)C/C=C/C(=O)Nc1cc2c(Nc3ccc(F)c(Cl)c3)ncnc2cc1O[C@H]1CCOC1 [LDC580, afatinib]
EC50 ([3]; Human betaherpesvirus 5, 168 h): 0.8 µM | pUL53 localization (in words) [4, 12]: no comparable effect | EC50 ([1]; Human betaherpesvirus 5, AD169, 168 h, HFFs infected with HCMV AD169-GFP, 7 d p.i., investigational LDC warheads): 0.6 µM | CC50 ([5]; human, 7 days): ~9 µM | CC50 at 7 days ([2]; CC50): > 10 µM

CC(C)Nc1nc2cc(Cl)c(Cl)cc2n1[C@H]1O[C@@H](CO)[C@H](O)[C@@H]1O [MBV, maribavir]
pUL53 localization (in words) [4, 12]: predominant dot-like structures | intranucleoplasmic coaggregation of lamin A/C (in words) ([4]; HFFs infected with HCMV AD169 (MOI 0.1), 5 d p.i., called preliminary): also visible

CC[C@H](C(=O)N1CCCC[C@H]1C(=O)O[C@H](CCc1ccc(OC)c(OC)c1)c1cccc(OCCN2CCOCC2)c1)c1cc(OC)c(OC)c(OC)c1 [Shield-1]
cytotoxic potential (in words) [6]: low cytotoxic potential

C=C1C(=O)O[C@@H]2C[C@@]3(C)CCC[C@H](C)C3=C[C@H]12 [alantolactone]
inhibitory effect on NanoBiT interaction signal (in words) [7]: very minor or no effects | EC50 [1, 11]: 3.2 ± 1.3 µM | CC50 at 7 days [2]: 23 ± 5 µM | inhibitory effect on NanoBiT interaction signal (in words) [8]: very minor or no effects

CCN(CC)C(=O)/C(C#N)=C/c1cc(O)c(O)c([N+](=O)[O-])c1 [entacapone]
antiviral activity (in words) [1, 10]: no notable antiviral activity | EC50 [1, 11]: > 50 µM | SI ([1]; clinically relevant warheads): inactive | CC50 at 7 days ([2]; CC50): 93 ± 4 µM

CCOc1cc2ncc(C#N)c(Nc3ccc(OCc4ccccn4)c(Cl)c3)c2cc1NC(=O)/C=C/CN(C)C [neratinib]
EC50 [1, 11]: 0.3 ± 0.1 µM | CC50 at 7 days ([2]; CC50): 37 ± 1 µM

C=CC(=O)Nc1cc(Nc2nccc(-c3cn(C)c4ccccc34)n2)c(OC)cc1N(C)CCN(C)C [osimeritinib]
inhibitory effect on NanoBiT interaction signal (in words) [7]: very minor or no effects | EC50 [1, 11]: 1 ± 0.8 µM | CC50 at 7 days ([2]; clinically relevant warheads, 0.1 µM to 100 µM, Neutral Red, uninfected HFFs, 7 d, read-out: CC50): 23 µM | inhibitory effect on NanoBiT interaction signal (in words) [8]: very minor or no effects

C=C1C(=O)O[C@H]2[C@H]1CC/C(C)=C/CC[C@@]1(C)O[C@@H]21 [parthenolide]
antiviral activity (in words) [1, 10]: no notable antiviral activity | EC50 [1, 11]: 6.7 ± 3.4 µM | CC50 at 7 days ([2]; CC50): 9 ± 0.4 µM

C=CC(=O)N1CCN(c2nc(=O)n(-c3c(C)ccnc3C(C)C)c3nc(-c4c(O)cccc4F)c(F)cc23)[C@@H](C)C1 [sotorasib]
antiviral activity (in words) [1, 10]: no notable antiviral activity | EC50 [1, 11]: > 50 µM | SI ([1]; clinically relevant warheads): inactive | CC50 at 7 days ([2]; CC50): 95 ± 12 µM

COC[C@H]1OC(=O)c2coc3c2[C@@]1(C)C1=C(C3=O)[C@@H]2CCC(=O)[C@@]2(C)C[C@H]1OC(C)=O [wortmannin]
antiviral activity (in words) [1, 10]: no notable antiviral activity | EC50 ([1]; Human betaherpesvirus 5, AD169, 168 h): > 50 µM | SI ([1]; clinically relevant warheads): inactive | CC50 at 7 days [2]: > 100 µM

B1: LgBiT::UL53(1–87)-Flag (domain or fragment)
chain: MSSVSGVRTPRERRSALRSLLRKRRQRELASKVASTVNGATSANNHGEPPSPADARPRLTLHDLHDIFREHPELELKYLNMMKMAIT
notes: source: 293T cells, transiently transfected (PEI), in live cells
NanoBiT signal strength relative to LgBiT::UL53-Flag + SmBiT::UL50-HA (100%) [9]: 288%
